Where two headings read alike, the source gives them in different places.
Key:
Assay type in all cases: cell-based
human androgen receptor = molecular target: T1, human androgen receptor (Homo sapiens, UniProt P10275); test: Antagonist activity for AR: MMTV-luc reporter transcription in COS-7 cells transfected with human AR, stimulated with DHT
T1 construct: expressed in transfected cells; host or cells: COS-7 cells (ATCC)
T1 sequence (P10275 1-920): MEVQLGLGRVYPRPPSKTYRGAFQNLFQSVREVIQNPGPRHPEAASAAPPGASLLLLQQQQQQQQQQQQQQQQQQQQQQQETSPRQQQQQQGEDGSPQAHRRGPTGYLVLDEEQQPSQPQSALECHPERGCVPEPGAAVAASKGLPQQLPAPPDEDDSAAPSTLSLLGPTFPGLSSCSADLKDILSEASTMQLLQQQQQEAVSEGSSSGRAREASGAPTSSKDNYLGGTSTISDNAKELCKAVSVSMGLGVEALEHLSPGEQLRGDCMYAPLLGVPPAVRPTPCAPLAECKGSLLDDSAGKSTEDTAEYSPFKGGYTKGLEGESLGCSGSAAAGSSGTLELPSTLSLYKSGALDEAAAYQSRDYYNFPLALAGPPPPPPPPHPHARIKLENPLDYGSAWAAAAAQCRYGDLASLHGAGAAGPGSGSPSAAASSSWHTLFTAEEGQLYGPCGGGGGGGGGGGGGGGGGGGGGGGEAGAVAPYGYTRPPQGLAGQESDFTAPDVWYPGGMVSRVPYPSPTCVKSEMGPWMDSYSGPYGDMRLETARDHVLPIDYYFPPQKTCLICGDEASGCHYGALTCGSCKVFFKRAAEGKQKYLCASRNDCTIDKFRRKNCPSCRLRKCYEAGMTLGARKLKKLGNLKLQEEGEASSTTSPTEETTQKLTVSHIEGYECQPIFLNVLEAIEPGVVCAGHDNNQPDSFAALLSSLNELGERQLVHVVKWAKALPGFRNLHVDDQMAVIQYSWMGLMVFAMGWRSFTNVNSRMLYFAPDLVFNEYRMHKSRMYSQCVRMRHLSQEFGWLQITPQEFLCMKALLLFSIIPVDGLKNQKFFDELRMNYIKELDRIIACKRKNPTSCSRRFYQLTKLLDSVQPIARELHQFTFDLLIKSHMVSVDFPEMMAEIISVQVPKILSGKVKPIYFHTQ
Protocol: Antagonist activity for AR was evaluated according to the following method. COS-7 cells (ATCC) were transfected with pMMTV-luc vector (reporter plasmid having, as an androgen response element, […] long terminal repeat) and pEX-hAR vector (human androgen receptor expression vector: which expresses human AR gene under control of CMV promoter) by using Nucleofector (registered trademark) Kit R (Lonza) as a transfection reagent and Amaxa (Lonza). The COS-7 cells obtained after transfection were seeded in a clear bottom 96 well microplate (BD) at 1.5×10^4/well with phenol red free RPMI1640 containing 10% charcoal-treated fetal bovine serum (hereinbelow, DCC-FBS) (hereinbelow, the medium is referred to as an evaluation medium), and then cultured overnight. […] Then, the transcription activity value of the reporter plasmid was measured. The transcription activity was measured by using Bright-Glo™ Luciferase Assay System (Promega).

[1] = system: Human prostate cancer cells LNCaP; test: Inhibitory activity on androgen-dependent proliferation of prostate cancer cells; settings: 1 nmol/L DHT, 72 hours, Cell Counting Kit-8, read-out: Proliferation inhibition concentration GI50 value
Protocol: Human prostate cancer cells LNCaP (Non-Patent Literature 5) having […] androgen receptor gene were seeded in a clear bottom 96 well microplate (BD) at 4.0×10^3/well with phenol red free RPMI1640 containing 5% DCC-FBS (hereinbelow, the medium is referred to as an evaluation medium), and then cultured overnight. […] Then, the number of viable cells was measured. The number of viable cells was measured by using Cell Counting Kit-8 (DOJINDO LABORATORIES).

[2] = system: AR positive human prostate cancer cells VCaP; test: Agonist activity for AR: cell proliferation rate of VCaP cells; settings: 5-10000 nmol/L, 72 hours, relative to evaluation medium only, more than 10% = agonist activity
Protocol: Then, the number of viable cells was measured (test group). As a control, the cells were cultured after being added with the evaluation medium only, and the number of viable cells was measured (control group). The number of viable cells was measured by using CellTiter-Glo™ Luminescent Cell Viability Assay (Promega). From the measured number of viable cells, cell proliferation rate with respect to the compound of Examples or the compound of Comparative Examples was calculated based on the number of viable cells measured in the case of using the evaluation medium only. Cell proliferation rate (%)=(Number of viable cells in test group−Number of viable cells in control group)/(Number of viable cells in control group)×100
By considering an error in the number of viable cells measured in the case of using the evaluation medium only, when the cell proliferation rate was more than 10% at any concentration of the 8 concentrations which had been evaluated, it was determined to have an agonist activity for AR.

AR expression in LNCaP = test: Activity of reducing expression level of androgen receptor (Western blotting in LNCaP); settings: Homo sapiens, read-out: AR expression reducing activity
Protocol: AR positive human prostate cancer cells LNCaP were seeded in a 6 well microplate (BD) at 3.5×10^5/well with RPMI1640 containing 5% FBS (hereinbelow, the medium is referred to as an evaluation medium), and then cultured overnight. […] After culture for 48 hours, the medium was removed and the cells were washed with PBS and added with 0.1 mL of Lysis buffer (M-PER added with Protease Inhibitor Cocktail), followed by keeping at 4° C. for 20 minutes. After cell lysis, the cell solution was centrifuged to recover the supernatant as cell lysate. […] The antibody-reacting band (anti AR receptor) was quantified by LAS Imaging System (FUJIFILM) using Super Signal West Dura Substrate (Thermo Scientific) as a detection reagent.
When the AR expression reducing activity is 50% or more, it is described as “reduced”.

[3] = COS-7 cells with pMMTV-luc and pEX-hAR, 1 nmol/L DHT, 24 hours, read-out: AR antagonist IC50
[4] = 10000 nmol/L, 48 hours, vs evaluation medium control

SMILES | IC50 (human androgen receptor) [µM] | GI50 [1] [µM] | Cell proliferation rate (%) [2] [%] | inhibition at 10 µM (AR expression in LNCaP; 48 h) [%] | IC50 (human androgen receptor; [3]) [µM] | inhibition at 10 µM (AR expression in LNCaP; [4]) [%]
C#CCNC(=O)c1ccc(Nc2ncnc3c2CCN(c2ccc(C#N)c(C(F)(F)F)c2)C3)nn1 [Example 11, 6-((7-(4-cyano-3-(trifluoromethyl)phenyl)-5,6,7,8-tetrahydropyrido[3,4-d]pyrimidin-4-yl)amino)-N-(prop-2-yn-1-yl)pyridazine-3-carboxamide] | 0.025 | 0.95 | 4.9 | > 50 |  | 
CC(C)(O)c1ccc(Nc2ncnc3c2CCN(c2ccc([N+](=O)[O-])c(Cl)c2)C3)nc1 [Example 13, 2-(6-((7-(3-Chloro-4-nitrophenyl)-5,6,7,8-tetrahydropyrido[3,4-d]pyrimidin-4-yl)amino)pyridin-3-yl)propan-2-ol] |  | 0.3 | 7.3 |  | 0.032 | > 50
CC(C)(O)c1ccc(Nc2ncnc3c2CCN(c2ccc([N+](=O)[O-])c(C(F)(F)F)c2)C3)nc1 [Example 14, 2-(6-((7-(4-nitro-3-(trifluoromethyl)phenyl)-5,6,7,8-tetrahydropyrido[3,4-d]pyrimidin-4-yl)amino)pyridin-3-yl)propan-2-ol] | 0.07 | 1.2 | 1.4 | > 50 |  | 
Cc1cc(N2CCc3c(ncnc3Nc3ccc(C(C)(C)O)cn3)C2)ccc1[N+](=O)[O-] [Example 16, 2-(6-((7-(3-methyl-4-nitrophenyl)-5,6,7,8-tetrahydropyrido[3,4-d]pyrimidin-4-yl)amino)pyridin-3-yl)propan-2-ol] |  | 0.23 | −1.8 |  | 0.07 | > 50
CC(C)(O)c1ccc(Nc2ncnc3c2CCN(c2ccc([N+](=O)[O-])c(Br)c2)C3)nc1 [Example 17, 2-(6-((7-(3-bromo-4-nitrophenyl)-5,6,7,8-tetrahydropyrido[3,4-d]pyrimidin-4-yl)amino)pyridin-3-yl)propan-2-ol] | 0.03 | 1.2 | 9.7 | > 50 |  | 
CC(C)Oc1cc(N2CCc3c(ncnc3Nc3ccc(C(C)(C)O)cn3)C2)ccc1[N+](=O)[O-] [Example 19, 2-(6-((7-(3-isopropoxy-4-nitrophenyl)-5,6,7,8-tetrahydropyrido[3,4-d]pyrimidin-4-yl)amino)pyridin-3-yl)propan-2-ol] |  | 0.22 | 7.8 |  | 1.3 | > 50
COc1cc(N2CCc3c(ncnc3Nc3ccc(C(C)(C)O)cn3)C2)ccc1C#N [Example 23, 4-(4-((5-(2-Hydroxypropan-2-yl)pyridin-2-yl)amino)-5,6-dihydropyrido[3,4-d]pyrimidin-7(8H)-yl)-2-methoxybenzonitrile] |  | 2.6 | 2.3 |  | 0.019 | > 50
O=C(NCC(F)(F)F)c1ccc(Nc2ncnc3c2CCN(c2ccc([N+](=O)[O-])c(C(F)(F)F)c2)C3)nn1 [Example 24, 6-((7-(4-Nitro-3-(trifluoromethyl)phenyl)-5,6,7,8-tetrahydropyrido[3,4-d]pyrimidin-4-yl)amino)-N-(2,2,2-trifluoroethyl)pyridazine-3-carboxamide] |  | 0.79 | 7.8 |  | 0.18 | > 50
COc1ccc(Nc2ncnc3c2CCN(c2ccc(C#N)c(C(F)(F)F)c2)C3)cc1OC [Example 26, 4-(4-((3,4-Dimethoxyphenyl)amino)-5,6-dihydropyrido[3,4-d]pyrimidin-7(8H)-yl)-2-(trifluoromethyl)benzonitrile] | 1.1 | 1.2 | 4.5 | > 50 |  | 
N#Cc1ccc(N2CCc3c(ncnc3Nc3ccc(OC(F)(F)F)cc3)C2)cc1C(F)(F)F [Example 27, 4-(4-((4-(trifluoromethoxy)phenyl)amino)-5,6-dihydropyrido[3,4-d]pyrimidin-7(8H)-yl)-2-(trifluoromethyl)benzonitrile] | 1 | 1 | 3.8 | > 50 |  | 
N#Cc1ccc(N2CCc3c(ncnc3Nc3ccc(N4CC5(COC5)C4)cc3)C2)cc1Cl [Example 28, 4-(4-((4-(2-oxa-6-azaspiro[3.3]heptan-6-yl)phenyl)amino)-5,6-dihydropyrido[3,4-d]pyrimidin-7(8H)-yl)-2-chlorobenzonitrile] | 0.68 | 0.68 | 1.4 | > 50 |  | 
CC(C)(C)OC(=O)N1Cc2ccc(Nc3ncnc4c3CCN(c3ccc(C#N)c(Cl)c3)C4)cc2C1 [Example 29, tert-butyl 5-((7-(3-chloro-4-cyanophenyl)-5,6,7,8-tetrahydropyrido[3,4-d]pyrimidin-4-yl)amino)isoindoline-2-carboxylate] | 0.22 | 0.83 | 2.4 | > 50 |  | 
CC(C)(C)OC(=O)N1CCc2ccc(Nc3ncnc4c3CCN(c3ccc(C#N)c(Cl)c3)C4)cc2C1 [Example 36, tert-Butyl 7-((7-(3-chloro-4-cyanophenyl)-5,6,7,8-tetrahydropyrido[3,4-d]pyrimidin-4-yl)amino)-3,4-dihydroisoquinoline-2(1H)-carboxylate] |  | 0.15 | 4.9 | > 50 | 0.18 | 
N#Cc1ccc(N2CCc3c(ncnc3Nc3ccc4c(c3)CNCC4)C2)cc1Cl [Example 37, 2-Chloro-4-(4-((1,2,3,4-tetrahydroisoquinolin-7-yl)amino)-5,6-dihydropyrido[3,4-d]pyrimidin-7(8H)-yl)benzonitrile] | 0.69 | 0.99 | 4.6 | > 50 |  | 
CC(=O)N1CCN(CCCOc2ccc(Nc3ncnc4c3CCN(c3ccc(C#N)c(Cl)c3)C4)cc2Cl)CC1 [Example 42, 4-(4-((4-(3-(4-Acetylpiperazin-1-yl)propoxy)-3-chlorophenyl)amino)-5,6-dihydropyrido[3,4-d]pyrimidin-7(8H)-yl)-2-chlorobenzonitrile] | 0.56 | 1.3 | 5.1 | > 50 |  | 

Source: patent publication US10370372B2, “Fused pyrimidine compound or salt thereof” (TAIHO PHARMACEUTICAL CO., LTD., priority 2015, dated 2019)
